{"source": "ChEMBL document CHEMBL5150052", "about": "“Riboflavin-Promoted In Situ Photoactivation of Dihydroalkaloid Prodrugs for Cancer Therapy” (J Med Chem, 2022)", "key": {"[1]": {"assay": "Photooxidative transformation of DHCHE assessed as increase in generation of CHE under blue light 450 nm/20 mW/cm^-2 irradiation at 10 uM by UV-vis absorption spectra analysis", "format": "functional"}, "[2]": {"assay": "Photooxidative transformation of DHCHE assessed as decrease in DHCHE peak under blue light 450 nm/20 mW/cm^-2 irradiation at 0.1 mg/ml by HPLC analysis (reference value: 82.7%)", "format": "functional", "design": "scale not given: the % may be the effect or the level left"}, "[3]": {"assay": "Photooxidative transformation of DHCHE assessed as decrease in DHCHE peak under blue light 450 nm/20 mW/cm^-2 irradiation at 0.1 mg/ml from 0 to 20 mins by HRMS spectra analysis", "format": "functional", "conditions": "time 0-20 min"}, "[4]": {"assay": "Photooxidative transformation of DHCHE assessed as decrease in DHCHE peak under blue light 450 nm/20 mW/cm^-2 irradiation at 0.1 mg/ml from 0 to 20 mins by NMR spectra analysis", "format": "functional", "conditions": "time 0-20 min"}, "[5]": {"assay": "Photooxidative transformation of DHSAN assessed as increase in generation of SAN under blue light 450 nm/20 mW/cm^-2 irradiation at 10 uM by UV-vis absorption spectra analysis", "format": "functional"}, "[6]": {"assay": "Photooxidative transformation of DHNIT assessed as increase in generation of NIT under blue light 450 nm/20 mW/cm^-2 irradiation at 10 uM by UV-vis absorption spectra analysis", "format": "functional"}, "[7]": {"system": "A-375", "assay": "Photooxidative transformation of DHCHE in human A-375 cells assessed as increase in red fluorescence in nucleus under blue light 450 nm/20 mW/cm^-2 irradiation at 10 uM after 1 min by confocal laser scanning microscopy", "format": "ADME, cell-based", "conditions": "a-375, 1 min"}, "[8]": {"system": "A-375", "assay": "Potentiation of DHCHE-mediated anticancer activity against human A-375 cells assessed as cell killing under blue light 450 nm/20 mW/cm^-2 irradiation at 10 uM after 10 min by MTT assay", "format": "functional, cell-based"}, "[9]": {"system": "A-375", "assay": "Potentiation of DHSAN-mediated anticancer activity against human A-375 cells assessed as cell killing under blue light 450 nm/20 mW/cm^-2 irradiation at 10 uM after 10 min by MTT assay", "format": "functional, cell-based"}, "[10]": {"system": "A-375", "assay": "Potentiation of DHNIT-mediated anticancer activity against human A-375 cells assessed as cell killing under blue light 450 nm/20 mW/cm^-2 irradiation at 10 uM after 10 min by MTT assay", "format": "functional, cell-based"}, "[11]": {"system": "A-375", "assay": "Potentiation of DHCHE-mediated apoptosis activity against human A-375 cells assessed as cell killing under blue light 450 nm/20 mW/cm^-2 irradiation at 10 uM after 30 min by CLSM imaging method", "format": "functional", "conditions": "0.5 h"}, "[12]": {"system": "A-375", "assay": "Potentiation of DHSAN-mediated apoptosis activity against human A-375 cells assessed as cell killing under blue light 450 nm/20 mW/cm^-2 irradiation at 10 uM after 30 min by CLSM imaging method", "format": "functional, cell-based"}, "[13]": {"system": "A-375", "assay": "Potentiation of DHNIT-mediated apoptosis activity against human A-375 cells assessed as cell killing under blue light 450 nm/20 mW/cm^-2 irradiation at 10 uM after 30 min by CLSM imaging method", "format": "functional, cell-based"}, "[14]": {"system": "A-375", "assay": "Potentiation of DHCHE-mediated apoptosis activity against human A-375 cells assessed as increase in Bax gene expression under blue light 450 nm/20 mW/cm^-2 irradiation at 10 uM after 10 min by quantitative reverse transcription PCR analysis", "format": "functional, cell-based"}, "[15]": {"system": "A-375", "assay": "Potentiation of DHCHE-mediated apoptosis activity against human A-375 cells assessed as increase in P53 gene expression under blue light 450 nm/20 mW/cm^-2 irradiation at 10 uM after 10 min by quantitative reverse transcription PCR analysis", "format": "functional, cell-based"}, "[16]": {"system": "A-375", "assay": "Potentiation of DHCHE-mediated apoptosis activity against human A-375 cells assessed as increase in Caspase 3 gene expression under blue light 450 nm/20 mW/cm^-2 irradiation at 10 uM after 10 min by quantitative reverse transcription PCR analysis", "format": "functional, cell-based"}, "[17]": {"system": "A-375", "assay": "Potentiation of DHCHE-mediated apoptosis activity against human A-375 cells assessed as decrease in Bcl2 gene expression under blue light 450 nm/20 mW/cm^-2 irradiation at 10 uM after 10 min by quantitative reverse transcription PCR analysis", "format": "functional, cell-based"}, "[18]": {"system": "A-375", "assay": "In vivo antitumor activity against human A-375 cells xenografted in mouse model assessed as potentiation of DHCHE-mediated tumor growth inhibition under blue light 450 nm/20 mW/cm^-2 irradiation at 1 mg/kg administered intratumoral injection for 14 days", "format": "functional, organism-based", "conditions": "route it(Intratumoral), time 14.0 day"}, "[19]": {"assay": "Toxicity in human A-375 cells xenografted in mouse model assessed as change in body weight in presence of DHCHE under blue light 450 nm/20 mW/cm^-2 irradiation at 1 mg/kg administered intratumoral injection for 14 days", "format": "organism-based", "conditions": "in vivo, other, 336 h, route it(Intratumoral), time 14 day"}, "[20]": {"system": "A-375", "assay": "In vivo antitumor activity against human A-375 cells xenografted in mouse model assessed as potentiation of DHCHE-mediated anticancer activity by measuring increase in vacuole and condensed nuclei at 1 mg/kg administered intratumoral injection for 14 days by […]", "format": "functional, organism-based", "conditions": "route it(Intratumoral), time 14.0 day"}, "[21]": {"system": "A-375", "assay": "In vivo antitumor activity against human A-375 cells xenografted in mouse model assessed as potentiation of DHCHE-mediated anticancer activity by measuring increase in caspase 3 expression at 1 mg/kg administered intratumoral injection for 14 days by […]", "format": "functional, organism-based", "conditions": "route it(Intratumoral), time 14.0 day"}, "[22]": {"system": "A-375", "assay": "In vivo antitumor activity against human A-375 cells xenografted in mouse model assessed as potentiation of DHCHE-mediated anticancer activity by measuring decrease in Ki-67 expression at 1 mg/kg administered intratumoral injection for 14 days by […]", "format": "functional, organism-based", "conditions": "route it(Intratumoral), time 14.0 day"}, "[23]": {"assay": "Toxicity in human A-375 cells xenografted in mouse model assessed as inflammation lesions in heart in presence of DHCHE under blue light 450 nm/20 mW/cm^-2 irradiation at 1 mg/kg administered intratumoral injection for 14 days by H and E staining based assay", "format": "organism-based", "conditions": "in vivo, other, 336 h, route it(Intratumoral), time 14 day"}, "[24]": {"assay": "Toxicity in human A-375 cells xenografted in mouse model assessed as inflammation lesions in liver in presence of DHCHE under blue light 450 nm/20 mW/cm^-2 irradiation at 1 mg/kg administered intratumoral injection for 14 days by H and E staining based assay", "format": "organism-based", "conditions": "in vivo, other, 336 h, route it(Intratumoral), time 14 day"}, "[25]": {"assay": "Toxicity in human A-375 cells xenografted in mouse model assessed as inflammation lesions in spleen in presence of DHCHE under blue light 450 nm/20 mW/cm^-2 irradiation at 1 mg/kg administered intratumoral injection for 14 days by H and E staining based assay", "format": "organism-based", "conditions": "in vivo, other, 336 h, route it(Intratumoral), time 14 day"}, "[26]": {"assay": "Toxicity in human A-375 cells xenografted in mouse model assessed as inflammation lesions in lung in presence of DHCHE under blue light 450 nm/20 mW/cm^-2 irradiation at 1 mg/kg administered intratumoral injection for 14 days by H and E staining based assay", "format": "organism-based", "conditions": "in vivo, other, 336 h, route it(Intratumoral), time 14 day"}, "[27]": {"assay": "Toxicity in human A-375 cells xenografted in mouse model assessed as inflammation lesions in kidney in presence of DHCHE under blue light 450 nm/20 mW/cm^-2 irradiation at 1 mg/kg administered intratumoral injection for 14 days by H and E staining based assay", "format": "organism-based", "conditions": "in vivo, other, 336 h, route it(Intratumoral), time 14 day"}, "[28]": {"assay": "Toxicity in human A-375 cells xenografted in mouse model assessed as inflammation lesions in intestine in presence of DHCHE under blue light 450 nm/20 mW/cm^-2 irradiation at 1 mg/kg administered intratumoral injection for 14 days by H and E staining based assay", "format": "organism-based", "conditions": "in vivo, other, 336 h, route it(Intratumoral), time 14 day"}, "[29]": {"assay": "Toxicity in human A-375 cells xenografted in mouse model assessed as changes in BUN in presence of DHCHE under blue light 450 nm/20 mW/cm^-2 irradiation at 1 mg/kg administered intratumoral injection for 14 days by […]", "format": "organism-based", "conditions": "in vivo, other, 336 h, route it(Intratumoral), time 14 day"}, "[30]": {"assay": "Toxicity in human A-375 cells xenografted in mouse model assessed as changes in ALT in presence of DHCHE under blue light 450 nm/20 mW/cm^-2 irradiation at 1 mg/kg administered intratumoral injection for 14 days by […]", "format": "organism-based", "conditions": "in vivo, other, 336 h, route it(Intratumoral), time 14 day"}, "[31]": {"assay": "Toxicity in human A-375 cells xenografted in mouse model assessed as changes in AST in presence of DHCHE under blue light 450 nm/20 mW/cm^-2 irradiation at 1 mg/kg administered intratumoral injection for 14 days by […]", "format": "organism-based", "conditions": "in vivo, other, 336 h, route it(Intratumoral), time 14 day"}, "[32]": {"assay": "Toxicity in human A-375 cells xenografted in mouse model assessed as changes in total protein in presence of DHCHE under blue light 450 nm/20 mW/cm^-2 irradiation at 1 mg/kg administered intratumoral injection for 14 days by […]", "format": "organism-based", "conditions": "in vivo, other, 336 h, route it(Intratumoral), time 14 day"}}, "note": "The source made the active and inactive calls. The calls are words filed in the database; no cut-off is given here.", "data": [{"smiles": "Cc1cc2nc3c(=O)[nH]c(=O)nc-3n(C[C@H](O)[C@H](O)[C@H](O)CO)c2cc1C", "note": "[RIBOFLAVIN]", "values": [{"measurement": "Drug metabolism", "setting": "[1]", "result": "Metabolite detected"}, {"measurement": "Activity", "setting": "[2]", "result": 11.2, "unit": "%"}, {"measurement": "Drug metabolism", "setting": "[3]", "result": "Metabolite detected"}, {"measurement": "Drug metabolism", "setting": "[4]", "result": "Metabolite detected"}, {"measurement": "Drug metabolism", "setting": "[5]", "result": "Metabolite detected"}, {"measurement": "Drug metabolism", "setting": "[6]", "result": "Metabolite detected"}, {"measurement": "Drug metabolism", "setting": "[7]", "result": "Metabolite_Detected"}, {"measurement": "Activity", "setting": "[8]", "result": "Active"}, {"measurement": "Activity", "setting": "[9]", "result": "Active"}, {"measurement": "Activity", "setting": "[10]", "result": "Active"}, {"measurement": "Activity", "setting": "[11]", "result": 61.7, "unit": "%"}, {"measurement": "Activity", "setting": "[12]", "result": "Active"}, {"measurement": "Activity", "setting": "[13]", "result": "Active"}, {"measurement": "Activity", "setting": "[14]", "result": "Active"}, {"measurement": "Activity", "setting": "[15]", "result": "Active"}, {"measurement": "Activity", "setting": "[16]", "result": "Active"}, {"measurement": "Activity", "setting": "[17]", "result": "Active"}, {"measurement": "Activity", "setting": "[18]", "result": "Active"}, {"measurement": "Activity", "setting": "[19]", "result": "Non-Toxic"}, {"measurement": "Activity", "setting": "[20]", "result": "Active"}, {"measurement": "Activity", "setting": "[21]", "result": "Active"}, {"measurement": "Activity", "setting": "[22]", "result": "Active"}, {"measurement": "Activity", "setting": "[23]", "result": "Non-Toxic"}, {"measurement": "Activity", "setting": "[24]", "result": "Non-Toxic"}, {"measurement": "Activity", "setting": "[25]", "result": "Non-Toxic"}, {"measurement": "Activity", "setting": "[26]", "result": "Non-Toxic"}, {"measurement": "Activity", "setting": "[27]", "result": "Non-Toxic"}, {"measurement": "Activity", "setting": "[28]", "result": "Non-Toxic"}, {"measurement": "Activity", "setting": "[29]", "result": "Non-Toxic"}, {"measurement": "Activity", "setting": "[30]", "result": "Non-Toxic"}, {"measurement": "Activity", "setting": "[31]", "result": "Non-Toxic"}, {"measurement": "Activity", "setting": "[32]", "result": "Non-Toxic"}]}]}
